The text below walks through data of US11155550B2, “Histone deacetylase inhibitors and methods of use thereof” (Reaction Biology Corp., priority 2018, dated 2021).

Molecules are shown by their SMILES.

Conditions in all cases: Table 2; incubation time 10 min
Test [1] has as its target T1, Human HDAC4 (Homo sapiens, UniProt P56524).
T1 construct: amino acids 627-1085 with a N-terminal GST tag; GST tag (N); made in house; host or cells: baculovirus expression system
Description: Biochemical HDAC enzymatic assay, HDAC4. As for the experimental part: (§1) Incubation time for HDAC1/2 is 120 min, and 10 min for other HDACs.
Human HDAC4 (GenBank Accession No. NM_006037), amino acids 627-1085 with a N-terminal GST tag, MW=75.2 kDa, was expressed in a baculovirus expression system.
(§2) • I. Compound handling: Testing compounds were dissolved in 100% DMSO to a specific concentration. The serial dilution was conducted by epMotion 5070 in DMSO. • II. HDAC reaction buffer: 50 mM Tris-HCl, pH8.0, 137 mM NaCl, 2.7 mM KCl, and 1 mM MgCl2, Added fresh: 1 mg/ml BSA, 1% DMSO. • III. […] Delivered 2× Substrate Mixture (Fluorogenic HDAC Substrate and co-factor ([…] of Nicotinamide adenine dinucleotide (NAD^+) in all Sirt assay) in all reaction wells to initiate the reaction. Spin and shake. • d. Incubated for 1-2 hr. at 30° C. with seal. • e. Added Developer with Trichostatin A (or TMP269 or NAD^+) to stop the reaction and to generate fluorescent color. • f. Fluorescence was read (excitatory, 360; emission, 460) using the EnVision Multilabel Plate Reader (Perkin Elmer) • g. Endpoint reading was taken for analysis after the development reaches plateau. • V. Data Analysis: The percentages of enzyme activity (relative to DMSO controls) and IC50 values were calculated using the GraphPad Prism 4 program based on a sigmoidal dose-response equation. […]

For test [2], the target named is T2, Human HDAC7 (Homo sapiens, UniProt Q8WUI4).
T2 construct: (a.a. 518-end) with an N-terminal GST tag; GST tag (N); made in house; host or cells: baculovirus expression system
T2 sequence (Q8WUI4 479-952 limits assumed): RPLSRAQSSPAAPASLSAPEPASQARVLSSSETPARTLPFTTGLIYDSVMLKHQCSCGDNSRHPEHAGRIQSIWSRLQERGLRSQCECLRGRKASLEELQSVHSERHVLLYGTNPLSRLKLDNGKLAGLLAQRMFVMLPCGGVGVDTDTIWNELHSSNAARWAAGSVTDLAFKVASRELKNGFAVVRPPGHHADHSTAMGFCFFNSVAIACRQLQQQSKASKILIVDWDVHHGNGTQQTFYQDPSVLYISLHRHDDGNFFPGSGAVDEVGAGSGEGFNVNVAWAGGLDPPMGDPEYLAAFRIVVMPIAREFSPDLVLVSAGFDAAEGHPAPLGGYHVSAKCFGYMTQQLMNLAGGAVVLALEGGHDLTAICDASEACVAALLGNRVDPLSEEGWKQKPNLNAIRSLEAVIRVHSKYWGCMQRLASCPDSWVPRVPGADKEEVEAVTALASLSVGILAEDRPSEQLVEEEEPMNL
Description: Biochemical HDAC enzymatic assay, HDAC7. As for the experimental part: as §1
Human HDAC7 (GenBank Accession No. AY302468), (a.a. 518-end) with an N-terminal GST tag, MW=78 kDa, was expressed in a baculovirus expression system.
as §2

For test [3], the target named is T3, Human HDAC9 (Homo sapiens, UniProt Q9UKV0).
T3 construct: amino acids 604-1066 with a C-terminal His tag; His tag (C); made in house; host or cells: baculovirus expression system
T3 sequence (Q9UKV0 604-1066 isoform Q9UKV0-5): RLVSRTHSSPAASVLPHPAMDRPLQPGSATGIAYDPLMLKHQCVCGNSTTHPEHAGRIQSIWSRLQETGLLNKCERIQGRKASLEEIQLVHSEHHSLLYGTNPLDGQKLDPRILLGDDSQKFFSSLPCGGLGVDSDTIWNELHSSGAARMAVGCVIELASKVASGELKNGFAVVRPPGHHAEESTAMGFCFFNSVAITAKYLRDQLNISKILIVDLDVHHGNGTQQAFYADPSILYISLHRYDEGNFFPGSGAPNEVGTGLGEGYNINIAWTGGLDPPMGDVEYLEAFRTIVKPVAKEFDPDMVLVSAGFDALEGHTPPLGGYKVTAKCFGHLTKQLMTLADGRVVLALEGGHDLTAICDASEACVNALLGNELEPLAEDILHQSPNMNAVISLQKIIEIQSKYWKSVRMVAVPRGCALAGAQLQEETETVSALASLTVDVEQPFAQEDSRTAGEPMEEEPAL
Description: Biochemical HDAC enzymatic assay, HDAC9. How it is done:
as §1
Human HDAC9 (GenBank Accession No. NM_178423), amino acids 604-1066 with a C-terminal His tag, MW=50.7 kDa, was expressed in a baculovirus expression system.
as §2

The target of test [4] is T4, Human HDAC11 (Homo sapiens, UniProt Q96DB2).
T4 construct: Human HDAC11 (full length); GST tag (N); made in house; host or cells: baculovirus expression system
T4 sequence (Q96DB2 1-347): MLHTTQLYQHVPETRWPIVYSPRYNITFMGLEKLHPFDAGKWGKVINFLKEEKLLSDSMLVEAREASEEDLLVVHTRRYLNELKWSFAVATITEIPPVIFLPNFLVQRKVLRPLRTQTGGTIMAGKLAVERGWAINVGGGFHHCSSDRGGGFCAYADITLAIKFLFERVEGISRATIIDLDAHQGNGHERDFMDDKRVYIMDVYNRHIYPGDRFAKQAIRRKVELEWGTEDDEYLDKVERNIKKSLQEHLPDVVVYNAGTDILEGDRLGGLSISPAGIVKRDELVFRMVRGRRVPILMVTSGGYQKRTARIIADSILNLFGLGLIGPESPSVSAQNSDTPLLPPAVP
Description: Biochemical HDAC enzymatic assay, HDAC11. As for the experimental part: as §1
Human HDAC11 (full length) (GenBank Accession No. NM_024827) with a N-terminal GST tag, MW=66 kDa, was expressed in a baculovirus expression system.
as §2

T1 sequence (P56524 627-1084 limits assumed): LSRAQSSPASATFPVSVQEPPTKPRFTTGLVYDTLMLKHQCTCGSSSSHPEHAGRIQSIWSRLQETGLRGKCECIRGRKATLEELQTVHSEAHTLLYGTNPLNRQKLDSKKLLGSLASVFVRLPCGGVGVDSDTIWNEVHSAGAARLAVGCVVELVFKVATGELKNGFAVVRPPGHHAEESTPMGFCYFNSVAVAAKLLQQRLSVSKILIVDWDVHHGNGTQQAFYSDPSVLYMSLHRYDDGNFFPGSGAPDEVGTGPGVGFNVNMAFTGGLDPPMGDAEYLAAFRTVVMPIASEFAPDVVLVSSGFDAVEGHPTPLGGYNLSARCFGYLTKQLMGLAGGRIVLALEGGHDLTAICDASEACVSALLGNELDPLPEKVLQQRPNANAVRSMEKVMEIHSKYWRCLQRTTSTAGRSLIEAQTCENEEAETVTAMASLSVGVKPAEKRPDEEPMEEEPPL

As usually defined, the IC50 is the concentration that inhibits the measured activity by half. A high value points to weaker potency in that assay. With `CN(C)C(=O)N1CCC2(CC1)c1ccccc1C(=O)N2Cc1ccc(C(=O)NO)cc1` [Compound Example 11, 2-(4-(hydroxycarbamoyl)benzyl)-N,N-dimethyl-3-oxospiro[isoindoline-1,4′-piperidine]-1′-carboxamide], the IC50 worked out at 5 µM in test [1], 0.85 µM in test [2], 3.2 µM in test [3] and 4.1 µM in test [4].

As for `O=C(NO)c1ccc(CN2C(=O)c3ccccc3C23CCN(C2CC2)CC3)cc1` [Compound Example 12, 4-((1′-cyclopropyl-3-oxospiro[isoindoline-1,4′-piperidin]-2-yl)methyl)-N-hydroxybenzamide], the IC50 in test [1] is above 10 µM; in test [2] it was 3.1 µM; in test [3], 6.9 µM; in test [4], 3.6 µM.
